In brackets after ≈: the same amount, converted by molar mass. Activity calls are given as the source filed them. No cut-off for these calls is given here.

From ChEMBL document CHEMBL3271996, “Potential antitumor agents. Synthesis of bifunctional alpha-methylene-gamma-butyrolactones” (J Med Chem, 1976) come the findings set out here.

For data set [1], the system named is L1210. The data set can be described thus: Antitumor activity against mouse L1210 cells allografted in mouse at 100 to 400 mg/kg. The format is functional, organism-based.
The next data set deals with 9KB. The data set can be described thus: (§1) Cytotoxicity against human 9KB cells. It counts as functional.
The nature of data set [2]: as §1. The format is functional. Conditions: read-out: ED50 (the source's name).
Data set [3] has as its system L1210. Kind of data set: Antitumor activity against mouse L1210 cells allografted in mouse. It counts as functional.
Data set [4] concerns W256. Kind of data set: Antitumor activity against rat Walker 256 cells allografted in rat assessed as inhibition of tumor growth at 18.75 mg/kg. It counts as functional. Conditions: read-out: TGI.
For data set [5], the system named is Rattus norvegicus. Kind of data set: Toxicity in rat Walker 256 cells allografted rat at 37.5 mg/kg. It counts as organism-based. Also noted: dose 37.5 mg/kg. Conditions: in vivo.
The test system of data set [6] is W256. Kind of data set: Antitumor activity against rat Walker 256 cells allografted in rat. The format is functional.
Data set [7] is filed under the species Rattus norvegicus. Kind of data set: Toxicity in rat Walker 256 cells allografted rat. It counts as organism-based.
The next data set has as its system HeLa. Kind of data set: Cytotoxicity against human HeLa cells at 5 ug/ml. It counts as functional, cell-based.
Data set [8] deals with Rattus norvegicus. The data set can be described thus: Toxicity in rat Walker 256 cells allografted rat at 240 mg/kg. It counts as organism-based. Also noted: dose 240 mg/kg. To be noted: in vivo.
Data set [9] has as its system W256. The data set can be described thus: Antitumor activity against rat Walker 256 cells allografted in rat assessed as inhibition of tumor growth at 120 mg/kg. It counts as functional. To be noted: read-out: TGI.

As to `O=C1OCC/C1=C\OCCO/C=C1\CCOC1=O`, the result in the data set with L1210 [1] and with 9KB was inactive.

On to `Cc1ccc(S(=O)(=O)O/C=C2\CCOC2=O)cc1`, for which the result in the data set on L1210 [1] and in the data set with 9KB was inactive.

Take `O=C1OCC/C1=C\OC(=O)c1ccccc1`: the outcome in the data set with L1210 [1] was inactive.

Regarding `C=C1CCOC1=O` [TULIPALINE A], in data set [2], the EC50 is 16 µg/mL (≈ 163 µM).

For the compound `C=C1CC(CCCCCCC2CC(=C)C(=O)O2)OC1=O` (stereo not given), the EC50 in [2] amounted to 7 µg/mL (≈ 25.1 µM). Further, the result in the data set on L1210 [3] was inactive.

As to `O=C(Cc1ccccc1)O/C=C1\CCOC1=O`, the result in the data set on L1210 [1] and with 9KB was inactive.

As to `O=C1OCC/C1=C\OCCCCCO/C=C1\CCOC1=O`, the outcome with L1210 [1] was inactive.

Take `C=C1CC(CCCC2CC(=C)C(=O)O2)OC1=O` (stereo not given): in data set [2], the EC50 came to 4 µg/mL (≈ 16.9 µM). Also, the result with L1210 [3] was inactive. Moreover, in the data set on W256 [4], the inhibition in vivo at 18.75 mg/kg was 45%. Further, the Activity entry in the data set on Rattus norvegicus [5] is “Toxic”.

As for `O=C1OCC/C1=C\OCCCCCCO/C=C1\CCOC1=O`, the result with L1210 [1], with 9KB and with W256 [6] was inactive. The Activity entry in the data set listed under Rattus norvegicus [7] was “Non-toxic”.

With `C=C1CC(CCCCC2CC(=C)C(=O)O2)OC1=O` (stereo not given), in data set [2], the EC50 came to 32 µg/mL (≈ 128 µM). Also, the result with L1210 [3] was inactive.

For the compound `C=C1CC(CCCCCC2CC(=C)C(=O)O2)OC1=O` (stereo not given), in data set [2], the EC50 amounted to 15 µg/mL (≈ 56.7 µM). Further, the outcome in the data set with L1210 [3] was inactive.

For `O=C1OCC/C1=C\OCCCO/C=C1\CCOC1=O`, the result in the data set with L1210 [1] was inactive.

Regarding `O=C1OCC/C1=C\OCCCCCCCCCCO/C=C1\CCOC1=O`, in the data set on L1210 [1], the result was inactive.

Consider `O=C1OCC/C1=C\OCCCCO/C=C1\CCOC1=O`, for which the outcome in the data set with L1210 [1] and with 9KB was inactive.

For the compound `CC1(O/C=C2\CCOC2=O)C=CC(=O)O1` (stereo not given), in the data set with HeLa, the outcome was Active. Besides, in the data set with Rattus norvegicus [8], the Activity result is on record as “Toxic”. Further, the inhibition in vivo at 120 mg/kg in the data set on W256 [9] came out at 27%.
